Measured values reported in patent US20200297670A1, “Capsaicin Sequential Dosing Method for Treatment of Morton's Neuroma Pain” (Centrexion Therapeutics Corporation, priority 2016, published 2020).

Tested on: pain due to an intermetatarsal neuroma
Assay: Average walking pain due to intermetatarsal neuroma on Numeric Pain Rating Scale (NPRS) after two injected doses of trans-capsaicin
Assay type: in vivo, human
Conditions: for reduction in patients' reported average walking pain due to the intermetatarsal neuroma (NPRS): 27 adult human patients
Experimental: Twenty-seven adult, human patients experiencing pain due to an intermetatarsal neuroma were treated by administering a first dose of trans-capsaicin (200 μg of trans-capsaicin) and then, after at least 11 weeks, administered a second dose of trans-capsaicin (200 μg of trans-capsaicin). Patients rated their average walking pain due to the intermetatarsal neuroma on a Numeric Pain Rating Scale (NPRS), where pain is characterized by the patient on a scale of zero to ten (with zero being “no pain”, and ten being “worst possible pain”). Patients rated their average walking pain due to the intermetatarsal neuroma on (i) just prior to receiving the injection of trans-capsaicin and (ii) four (4) weeks after receiving each injection of trans-capsaicin. Patients reported a reduction in average walking pain due to the intermetatarsal neuroma when measured at four weeks after injection of trans-capsaicin for each administration of trans-capsaicin.
trans-Capsaicin was administered to twenty-seven (27) adult, human patients experiencing pain due to an intermetatarsal neuroma according to the procedures described below. Prior to administering the first dose of trans-capsaicin in this study, patients reported an average walking pain due to the intermetatarsal neuroma of at least four on the Numeric Pain Rating Scale (NPRS). Patients received two doses of trans-capsaicin.
trans-Capsaicin was injected in the amount of 200 μg per dose by ultrasound-guided needle placement into the area of the neuroma (but not inserting the needle into the intermetatarsal neuroma itself). The dose of trans-capsaicin was injected as a 2 mL solution containing trans-capsaicin at a concentration of 100 μg/mL. […]
Pain due to the intermetatarsal neuroma was evaluated by having patients rate their average walking pain due to the intermetatarsal neuroma on a Numeric Pain Rating Scale (NPRS), where pain is characterized by the patient on a scale of zero to ten (with zero being “no pain”, and ten being “worst possible pain”). […]

## COc1cc(CNC(=O)CCCCC=CC(C)C)ccc1O [trans-capsaicin, N-[(4-hydroxy-3-methoxyphenyl)methyl]-8-methylnon-6-enamide]
First dose 200 μg trans-capsaicin injected into area of neuroma, four weeks after injection vs prior to first dose
  reduction in patients' reported average walking pain due to the intermetatarsal neuroma (NPRS): 1.6 point
Second dose 200 μg trans-capsaicin (83 to 196 days after first dose), four weeks after injection vs just prior to second dose
  reduction in patients' reported average walking pain due to the intermetatarsal neuroma (NPRS): 2.3 point
Repeat injection, 200 μg per dose, adult human patients
  effect of repeat injection on pain due to an intermetatarsal neuroma: effective in ameliorating pain
